Test results published in patent publication US20240148728A1, “NOVEL METHOD TO BLOCK IN[…] DEATH AND IL-1BETA SECRETION CAUSED BY […] UV I[…] GENETIC AND CHEMICAL INHIBITORS OF ZAKA AND THE NLRP1 INFLAMMASOME” (priority 2021, published 2024).
Entries after “also recorded” stand apart in the source; their conditions may differ.

Tests used:
NLRP1^DR = assay: NLRP1 PYD-DR1 / NLRP1^DR phosphorylation (GFP fusion, immunoblot, PhosTag SDS-PAGE) in N-TERT cells; format: cell-based, human; conditions: NLRP1 KO N-TERT cells expressing GFP-tagged NLRP1^DR; various kinase inhibitors
Source text: (§1) The following antibodies were used in this study: cleaved PARP1 (Abclonal, #WH162766), Cleaved CASP3 (Abclonal, #WH154646), Full length GSDMD-FL (Abcam, #ab210070), IL1β p17 specific (CST, #83186S), CARD8 (Abcam, CARD8-NT: ab19485, CARD8-CT: ab241186), DPP9 (Abcam, ab226334), c-Myc (Santa Cruz Biotechnology, #sc-40), HA tag (Santa Cruz Biotechnology, #sc-805), GAPDH (Santa Cruz Biotechnology, #sc-47724), ASC (Adipogen, #AL-177), CASP1 (Santa Cruz Biotechnology, #sc-622), 11_1B (R&D systems, #AF-201), FLAG (SigmaAldrich, #F3165), NLRP1 (R&D systems, #AF6788), IL18 (Abcam ab207324), cleaved GSDMD-NT (Asp275) (Cell Signaling Technology, #36425), RPL31 (Abclonal, #WH162766), CASP7 (Abcam, ab255818), CASP8 (Abcam, ab32397), cleaved CASP3 (Cell Signaling Technology, #9664). All horseradish peroxidase (HRP)— conjugated secondary antibodies were purchased from Jackson Immunoresearch (goat anti-mouse IgG: 115-035-166; goat anti-rabbit IgG: 111-035-144; and donkey anti-goat IgG: 705-005-147). Blue-Native PAGE was carried out using the Native-PAGE system (ThermoFisher) with 10-20 μg of total lysate. For SDS-PAGE using whole cell lysates, cells were resuspended in tris-buffered saline 1% NP-40 with protease inhibitors (Thermo Scientific, #78430). Protein concentration was determined using the Bradford assay (Thermo Scientific, #23200) and […] of protein loaded, a part from cleaved GSDMD-NT visualisation where […] of protein was used. All primary antibodies were used at 250 ng/ml. Visualisation of ASC oligomerization was previously described (Robinson et al., 2020). For analysis of IL1β and IL-18 cleavage in the media by immunoblotting, samples were concentrated using filtered centrifugation (Merck, Amicon Ultra, #UFC5003BIK). Protein samples were run using immunoblotting, and then visualized using a ChemiDoc Imaging system (Bio-Rad). PhosTag SDS-PAGE was carried out using homemade 10% SDS-PAGE gel, with addition of Phos-tag Acrylamide (Wako Chemicals, AAL-107) to a final concentration of 30 μM and manganese chloride(II) (Sigma-Aldrich, #63535) to 60 μM.
Cells were directly harvested using Laemmli buffer, lysed with an ultrasonicator, and loaded into the Phos-tag gel to run. Once the run was completed, the polyacrylamide gel was washed in transfer buffer with 10 mM EDTA twice, subsequently washed without EDTA twice, blotted onto 0.45 μm PVDF membranes (Bio-rad), blocked with 3% milk, and incubated with primary and corresponding secondary antibodies.

ZAKα = ZAKα (Homo sapiens, UniProt Q9NYL2); conditions: cited from earlier work
[1] = tested on: immortalized keratinocytes (N-TERT); assay: Pyroptosis / apoptosis in N-TERT keratinocytes (morphology, ASC-GFP, PI, Annexin V, immunoblot); format: cell-based, human; conditions: for mode of cell death (apoptosis / pyroptosis): Annexin V staining and PI inclusion, immunoblot markers
Source text: as §1
N-TERT-ASC-GFP cells were seeded at a cell density of 3000 cells/well of a 96 black well plate (PerkinElmer, CellCarrier-96 Ultra, #6055300). The next morning cells were treated with chemicals for 6 h or treated in the evening for 24 h before staining. 1 hour before observing the cells on the microscope the cells were stained with 1 μg/ml dilution of propidium iodide (PI, Abcam #ab14083), 10 ng/ml dilution of Hoechst 33342 (Life Technologies, #H21492) or stained with Annexin V Alexa Flour 647 (Life technologies, #A23204) according to the manufacturer's protocol. Stained cells were then imaged on a high content screening microscope (Perkin Elmer Operetta CLS imaging system). Images were then stored and analyzed using the Harmony software (Version 6). Fluorescent and brightfield images acquired on the Operetta high content screening microscope were further analyzed using a scoring system to categorize the percentages of live, apoptotic and pyroptotic cells. For 3 fields of view per treatment the number of live cells per field was counted from the merge of the brightfield and ASC-GFP channels. Only cells which contained ASC-GFP throughout the cytoplasm and nucleus were classed as “live”. The number of pyroptotic cells was calculated using the merge of the brightfield and ASC-GFP channels. Only the cells with GFP specks were classed as “pyroptotic”. The number of apoptotic cells was calculated using the merge of the brightfield, ASC-GFP and Annexin V channels. Cells that were stained positive for Annexin V but without a GFP speck were classified as “apoptotic”. Images of ASC-GFP specks were acquired in 3 random fields in 4′,6-diaminidino-2-phenylindole (DAPI, 358 nm/461) and GFP (469 nm/525 nm) channels using the EVOS microscope (FL Auto M5000, #AM F5000) according to the manufacturer's protocol. […]

3D organotypic skin = assay: Secreted cytokines/chemokines from 3D organotypic skin (ELISA, Luminex); format: cell-based, human
Description: Organotypic cultures were generated by adapting a previously described protocol (Arnette et al., 2016). Briefly, 2 ml of collagen I (4 mg/ml; Corning, #354249) mixed with 7.5×10^5 human fibroblasts were allowed to polymerize over 1-m1 acellular collagen I in 6-well culture inserts (Falcon, #353102) placed in 6-well deep well plate (Falcon, #355467). After 24 hours, 1×10^6 primary human keratinocytes were seeded into the inserts and kept submerged in a 3:1 DMEM (Hyclone, #SH30243.01) and F12 (Gibco, #31765035) mixture with 10% FBS (Hyclone, #SV30160.03), 100 U/ml penicillin-streptomycin (Gibco, #15140122), 10 μM Y-27632 (Tocris, #1254), 10 ng/ml EGF (Sigma-Aldrich, #E9644), 1×10^−10 M cholera toxin (Enzo, #BML-G117-001), 0.4 μg/ml hydrocortisone (Sigma-Aldrich, #H0888), 0.0243 mg/ml adenine (Sigma-Aldrich, #A2786), 5 μg/ml insulin (Sigma-Aldrich, #12643), 5 μg/ml transferrin (Sigma-Aldrich, #T2036) and 2×10^−9 M 3,3′,5′-triiodo-L-thyronine (Sigma-Aldrich, #T6397). After another 24 hours, the organotypic cultures were then raised at the air-liquid interface and fed with the submerged media (without Y-27632 and EGF) below the insert to induce epidermal differentiation. The air-lifting medium was replaced every 2 days and treatments began 10-14 days after airlifting. Organotypic cultures were then harvested 24 hours after treatment and formalin fixed for 24 hours. […]

human skin explants = assay: UVB-induced IL1β in human skin explants; conditions: UVB 100 or 250 mJ/cm^2, harvest 24 hours later
Source text: Waste surgical skin tissues from abdomen and breast were collected with appropriate informed consent of the patients and sent to the Asian Skin Biobank (ASB worldwidewebdota-stardotedudotsg/sris/technology-platforms/asian-skin-biobank) at the Skin Research Institute of Singapore (SRIS) (under A*STAR IRB 2020-209). Fresh skin tissue was cleaned in solutions of HBSS with decreasing concentrations of Penicillin, Streptomycin and Fungizone. Then 8-mm skin biopsies were punched and submerged in culture media. Skin explants were immediately irradiated with UVB or treated with VbP.
For UVA and UVB irradiation experiments, cells were seeded 24 hours prior to irradiation, and washed once in phosphate buffered saline pH 7.4 before being exposed to indicated dose of irradiation using a BIO-SUN microprocessor controlled, cooled UV irradiation system (BIO-SUN, Vilber). After exposure, PBS was replaced by keratinocyte medium and cells were incubated for indicated time.
To measure secreted cytokine and chemokine levels a human IL1β enzyme linked immunosorbent assay (ELISA) kit (BD, #557953), human IL-18 ELISA kit (MBL, #7620) or an Immune Monitoring 65-Plex Human ProcartaPlex Panel (EPX650-10065-901) were used according to manufacturer's protocols. […]

N-TERT cells = assay: Secreted IL1β / inflammasome activation in N-TERT cells; format: cell-based, human; conditions: ZAKα KO N-TERT cells
Description: To measure secreted cytokine and chemokine levels a human IL1β enzyme linked immunosorbent assay (ELISA) kit (BD, #557953), human IL-18 ELISA kit (MBL, #7620) or an Immune Monitoring 65-Plex Human ProcartaPlex Panel (EPX650-10065-901) were used according to manufacturer's protocols. Further analysis of Luminex or ELISA profiling of samples was performed using heatmap and PCA analysis on Clustervis (biitdotcsdotutdotee/clustvis/) [Somani et al., Proceeding of SSIC (2019)].
as §1

[2] = tested on: 3D human organotypic skin; assay: 3D organotypic skin histology and cleaved GSDMD-NT immunostaining; format: cell-based; conditions: immunostaining
Description: Organotypic cultures were generated by adapting a previously described protocol (Arnette et al., 2016). Briefly, 2 ml of collagen I (4 mg/ml; Corning, #354249) mixed with 7.5×10^5 human fibroblasts were allowed to polymerize over 1-m1 acellular collagen I in 6-well culture inserts (Falcon, #353102) placed in 6-well deep well plate (Falcon, #355467). After 24 hours, 1×10^6 primary human keratinocytes were seeded into the inserts and kept submerged in a 3:1 DMEM (Hyclone, #SH30243.01) and F12 (Gibco, #31765035) mixture with 10% FBS (Hyclone, #SV30160.03), 100 U/ml penicillin-streptomycin (Gibco, #15140122), 10 μM Y-27632 (Tocris, #1254), 10 ng/ml EGF (Sigma-Aldrich, #E9644), 1×10^−10 M cholera toxin (Enzo, #BML-G117-001), 0.4 μg/ml hydrocortisone (Sigma-Aldrich, #H0888), 0.0243 mg/ml adenine (Sigma-Aldrich, #A2786), 5 μg/ml insulin (Sigma-Aldrich, #12643), 5 μg/ml transferrin (Sigma-Aldrich, #T2036) and 2×10^−9 M 3,3′,5′-triiodo-L-thyronine (Sigma-Aldrich, #T6397). After another 24 hours, the organotypic cultures were then raised at the air-liquid interface and fed with the submerged media (without Y-27632 and EGF) below the insert to induce epidermal differentiation. The air-lifting medium was replaced every 2 days and treatments began 10-14 days after airlifting. Organotypic cultures were then harvested 24 hours after treatment and formalin fixed for 24 hours. Fixed tissues were then embedded into wax for histological purposes.
For immunohistochemistry staining of cleaved N-terminal GSDMD a previously established protocol with modifications was used [Wang et al., Cell 180:941-955.e20 (2020)]. Briefly, 5 μm formalin fixed and paraffin embedded sections were deparaffinized and rehydrated through a series of alcohol. The sections were then rehydrated in an antigen retrieval buffer (Dako, Tris-EDTA, pH 9). Sections were then blocked in goat serum for 20 mins at RT before primary antibody incubated overnight at 4° C. Immunostaining was visualised using DAB substrate and chromogen detection kit (Dako, #K3468). Sections were then counterstained with Myer's Hematoxylin.

ASC = assay: Phosphorylation of inflammasome adaptor ASC; format: cell-based, human; conditions: data not shown
HB-EGF = HB-EGF expression by RNAseq after TNFα priming; format: cell-based, human; conditions: FKPM by RNAseq
Description: Library preparation, QC and high-throughput sequencing were provided by Macrogen, Singapore. RNA isolation and library preparation was carried out as previously described [Robinson et al., Science (2020)].

Chain of ZAKα (Q9NYL2 whole entry): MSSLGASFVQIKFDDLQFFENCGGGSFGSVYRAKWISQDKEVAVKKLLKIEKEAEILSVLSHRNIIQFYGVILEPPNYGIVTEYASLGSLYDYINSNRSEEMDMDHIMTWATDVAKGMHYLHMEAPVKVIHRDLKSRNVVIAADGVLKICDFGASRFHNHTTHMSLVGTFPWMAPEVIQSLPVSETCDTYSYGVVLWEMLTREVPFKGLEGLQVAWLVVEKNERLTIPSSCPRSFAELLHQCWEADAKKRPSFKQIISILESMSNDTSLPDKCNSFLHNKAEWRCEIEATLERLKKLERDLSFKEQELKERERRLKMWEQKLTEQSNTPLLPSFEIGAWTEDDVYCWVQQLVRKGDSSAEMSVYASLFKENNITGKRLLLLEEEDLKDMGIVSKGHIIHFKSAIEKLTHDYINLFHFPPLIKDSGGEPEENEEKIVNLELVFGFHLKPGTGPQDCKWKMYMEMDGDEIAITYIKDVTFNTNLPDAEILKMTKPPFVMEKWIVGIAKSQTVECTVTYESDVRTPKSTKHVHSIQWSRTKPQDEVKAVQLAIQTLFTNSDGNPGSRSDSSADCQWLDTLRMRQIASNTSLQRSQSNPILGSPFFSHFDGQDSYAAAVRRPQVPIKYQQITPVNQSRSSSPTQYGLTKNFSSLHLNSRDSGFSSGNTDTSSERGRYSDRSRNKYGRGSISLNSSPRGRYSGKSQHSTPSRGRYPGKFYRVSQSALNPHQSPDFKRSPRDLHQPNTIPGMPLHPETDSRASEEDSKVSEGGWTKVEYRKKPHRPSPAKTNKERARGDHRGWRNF

COc1cc(O)c2c(c1)/C=C/C[C@H](O)[C@H](O)C(=O)/C=C\C[C@H](C)OC2=O [5-Z-7-oxozeanol, 5Z-7-Oxozeaenol]
effect on ANS-triggered NLRP1 hyperphosphorylation (NLRP1^DR): can effectively block ANS-triggered NLRP1 hyperphosphorylation | potency against ZAKα compared with TAK1 (ZAKα): almost the same potency as its reported target TAK1

COc1ccc(C[C@H](N)C(=O)N[C@H]2[C@@H](O)[C@H](n3cnc4c(N(C)C)ncnc43)O[C@@H]2CO)cc1 [PURO, Puromycin]
mode of cell death (apoptosis / pyroptosis) [1]: kills cells exclusively via apoptosis | chemokine/cytokine profile versus untreated (3D organotypic skin): very few cytokines/chemokines differed

C=CC(=O)N1CCCC(c2ccnc(Nc3cc(C(=O)Nc4cc(-n5cnc(C)c5)cc(C(F)(F)F)c4)ccc3C)n2)C1 (stereo not drawn) [M443, 4-methyl-N-[3-(4-methylimidazol-1-yl)-5-(trifluoromethyl)phenyl]-3-[[4-(1-prop-2-enoylpiperidin-3-yl)pyrimidin-2-yl]amino]benzamide]
effect on UVB-induced IL1β / NLRP1 activation (human skin explants): reduction in UVB-induced IL1β; also recorded: effective at blocking UVB induced NLRP1 activation and IL1beta release | effect on ANS-triggered NLRP1 hyperphosphorylation (NLRP1^DR): can effectively block ANS-triggered NLRP1 hyperphosphorylation

CC(C)[C@H](N)C(=O)N1CCC[C@H]1B(O)O [VbP, Talabostat]
IL1β secretion and pyroptotic death in ZAKα KO cells (N-TERT cells): remained fully sensitive | cleaved GSDMD N-terminal fragment at the cell membrane [2]: prominently enriched at the cell membrane | mode of cell death (apoptosis / pyroptosis) [1]: exclusively triggers pyroptosis | time to induce detectable pyroptosis ([1]; wild-type N-TERT cells, PI positive cells): at least 5 hours | phosphorylation of ASC (ASC): not phosphorylated

TNFα
increased expression of DT entry receptor HB-EGF (HB-EGF): > 5 fold
